Experimental findings from the NIST ThermoML archive (doi:10.1016/j.fluid.2008.02.016) are described below.

Numbers after ± are expanded uncertainties.

Data set [1] can be described thus: Molar enthalpy of transition or fusion. Conditions: Crystal; DSC.
For data set [2] the following is noted: Crystal; DTA.

Regarding `Cc1ccc(C(C)(C)c2ccc(C)cc2)cc1` [2,2-bis(p-tolyl)propane], in data set [1], the “Molar enthalpy of transition or fusion” value is 5.07 ± 0.143 kcal/mol. Also, the Normal melting temperature in data set [2] was 78.60 ± 0.5 °C.

For `Cc1ccc(C(c2ccc(C)cc2)(C(F)(F)F)C(F)(F)F)cc1` [2,2-bis(p-tolyl)hexafluoropropane], the “Molar enthalpy of transition or fusion” value in data set [1] worked out at 5.33 ± 0.167 kcal/mol. For the same compound, in data set [2], the Normal melting temperature was found to be 84.10 ± 0.5 °C.
